# Data taken from ChEMBL document CHEMBL1201862, “PubChem BioAssay data set” (2004).
# Activity calls are given as the source filed them.
# Assays:
# [1] = target: Peroxisome proliferator-activated receptor gamma/Nuclear receptor coactivator 2 (Homo sapiens, UniProt P37231); assay: TR-FRET dose response biochemical High Throughput Screening assay for agonists of the steroid receptor coactivator 2 (SRC-2) recruitment by the peroxisome proliferator-activated receptor gamma (PPAR gamma): non-selective agonists. [Related pubchem assays: 1297, 1032 ]; format: functional
# [2] = target: Peroxisome proliferator-activated receptor gamma/Nuclear receptor coactivator 3 (Homo sapiens, UniProt P37231); assay: TR-FRET dose response biochemical High Throughput Screening assay for agonists of the steroid receptor coactivator 3 (SRC-3) recruitment by the peroxisome proliferator-activated receptor gamma (PPAR gamma): non-selective agonists. [Related pubchem assays: 1301 (Confirmation screen.), 1048 (Primary screen.)]; format: functional
# [3] = target: Peroxisome proliferator-activated receptor gamma/Nuclear receptor coactivator 1 (Homo sapiens, UniProt P37231); assay: TR-FRET dose response biochemical High Throughput Screening assay for agonists of the steroid receptor coactivator 1 (SRC-1) recruitment by the peroxisome proliferator-activated receptor gamma (PPAR gamma): non-selective agonists. [Related pubchem assays (depositor defined):AID1300, AID1808, AID504735, AID631]; format: protein assay
# [4] = target: DNA dC->dU-editing enzyme APOBEC-3A (Homo sapiens, UniProt P31941); assay: Dose Response confirmation of small molecule APOBEC3A DNA Deaminase Inhibitors via a fluorescence-based single-stranded DNA deaminase assay. [Related pubchem assays (depositor defined):AID493011, AID493024]; format: functional
# Sequence of DNA dC->dU-editing enzyme APOBEC-3A (P31941 whole entry): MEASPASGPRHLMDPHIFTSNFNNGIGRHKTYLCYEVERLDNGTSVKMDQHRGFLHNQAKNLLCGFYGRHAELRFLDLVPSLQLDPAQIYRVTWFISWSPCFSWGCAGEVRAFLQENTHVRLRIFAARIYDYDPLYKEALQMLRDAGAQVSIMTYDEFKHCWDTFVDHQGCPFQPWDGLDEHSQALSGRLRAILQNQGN
# [5] = target: DNA dC->dU-editing enzyme APOBEC-3G (Homo sapiens, UniProt Q9HC16); format: functional;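 further: Dose-response counterscreen measuring inhibition of APOBEC3G DNA deaminase activity, run while confirming APOBEC3A inhibitors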
# Sequence of DNA dC->dU-editing enzyme APOBEC-3G (Q9HC16 whole entry): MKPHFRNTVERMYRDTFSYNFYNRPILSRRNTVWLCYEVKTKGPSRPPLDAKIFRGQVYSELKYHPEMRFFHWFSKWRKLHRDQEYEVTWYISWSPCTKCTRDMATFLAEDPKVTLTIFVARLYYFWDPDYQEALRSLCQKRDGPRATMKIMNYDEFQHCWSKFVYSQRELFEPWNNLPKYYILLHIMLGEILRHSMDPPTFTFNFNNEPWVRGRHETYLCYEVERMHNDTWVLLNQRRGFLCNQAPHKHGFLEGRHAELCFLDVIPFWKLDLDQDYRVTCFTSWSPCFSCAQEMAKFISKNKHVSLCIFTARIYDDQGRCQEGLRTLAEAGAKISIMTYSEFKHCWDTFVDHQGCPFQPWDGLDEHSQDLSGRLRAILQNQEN
# [6] = target: T1, Alkaline phosphatase, tissue-nonspecific isozyme (Homo sapiens, UniProt P05186); assay: human TNAP enzyme inhibitors, SAR follow-up, biochemical, luminescent, dose response (AID 1056)
# T1 sequence (P05186 whole entry): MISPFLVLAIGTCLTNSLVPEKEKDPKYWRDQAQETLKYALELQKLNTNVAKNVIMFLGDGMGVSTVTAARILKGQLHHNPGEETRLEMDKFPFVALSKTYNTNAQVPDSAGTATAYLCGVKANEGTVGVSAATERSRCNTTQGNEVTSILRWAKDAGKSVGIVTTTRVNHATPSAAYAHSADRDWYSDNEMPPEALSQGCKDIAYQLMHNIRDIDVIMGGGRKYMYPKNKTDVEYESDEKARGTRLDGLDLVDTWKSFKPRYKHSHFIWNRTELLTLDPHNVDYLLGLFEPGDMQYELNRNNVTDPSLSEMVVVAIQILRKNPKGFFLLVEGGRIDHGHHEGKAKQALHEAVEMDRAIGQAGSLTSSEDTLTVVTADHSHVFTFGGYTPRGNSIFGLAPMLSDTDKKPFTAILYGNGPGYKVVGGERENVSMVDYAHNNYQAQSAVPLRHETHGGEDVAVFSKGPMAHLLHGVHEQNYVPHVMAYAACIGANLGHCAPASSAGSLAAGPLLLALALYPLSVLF
# [7] = target: Alkaline phosphatase, placental type (Homo sapiens, UniProt P05187); assay: PLAP enzyme inhibitors, confirmation, biochemical, luminescence (AID 1512); format: functional
# Sequence of Alkaline phosphatase, placental type (P05187 whole entry): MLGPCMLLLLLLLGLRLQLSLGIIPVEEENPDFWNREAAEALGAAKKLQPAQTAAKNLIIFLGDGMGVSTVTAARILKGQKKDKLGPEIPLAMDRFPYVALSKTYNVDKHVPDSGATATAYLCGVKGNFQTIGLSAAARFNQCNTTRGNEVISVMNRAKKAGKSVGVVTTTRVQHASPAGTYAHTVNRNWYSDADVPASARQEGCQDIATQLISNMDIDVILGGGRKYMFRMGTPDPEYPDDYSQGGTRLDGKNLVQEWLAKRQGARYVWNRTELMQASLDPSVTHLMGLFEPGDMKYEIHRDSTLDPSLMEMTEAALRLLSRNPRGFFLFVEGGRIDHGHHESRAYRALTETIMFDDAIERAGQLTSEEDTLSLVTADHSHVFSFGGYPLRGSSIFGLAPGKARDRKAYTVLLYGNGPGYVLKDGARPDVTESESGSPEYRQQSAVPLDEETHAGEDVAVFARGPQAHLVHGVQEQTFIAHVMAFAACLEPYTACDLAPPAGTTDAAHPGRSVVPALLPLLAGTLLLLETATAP
# Trypsin = Trypsin (Sus scrofa, UniProt P00761); assay: porcine trypsin inhibitors, dose response, selectivity assay for Rce1 protease inhibitor project, biochemical, quenched peptide fluorescence, cherry-pick (AID 488789)
# Sequence of Trypsin (P00761 whole entry): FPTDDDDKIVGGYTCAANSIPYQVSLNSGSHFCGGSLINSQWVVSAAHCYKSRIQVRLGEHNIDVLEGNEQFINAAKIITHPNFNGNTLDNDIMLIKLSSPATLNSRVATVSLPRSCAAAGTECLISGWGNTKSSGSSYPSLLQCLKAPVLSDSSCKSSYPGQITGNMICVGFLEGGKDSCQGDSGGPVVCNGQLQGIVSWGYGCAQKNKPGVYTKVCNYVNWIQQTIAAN
# [8] = target: Voltage-dependent T-type calcium channel subunit alpha-1H (Homo sapiens, UniProt O95180); format: functional;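 further: channel activity triggered by adding a high calcium stimulation buffer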
# Sequence of Voltage-dependent T-type calcium channel subunit alpha-1H (O95180 whole entry): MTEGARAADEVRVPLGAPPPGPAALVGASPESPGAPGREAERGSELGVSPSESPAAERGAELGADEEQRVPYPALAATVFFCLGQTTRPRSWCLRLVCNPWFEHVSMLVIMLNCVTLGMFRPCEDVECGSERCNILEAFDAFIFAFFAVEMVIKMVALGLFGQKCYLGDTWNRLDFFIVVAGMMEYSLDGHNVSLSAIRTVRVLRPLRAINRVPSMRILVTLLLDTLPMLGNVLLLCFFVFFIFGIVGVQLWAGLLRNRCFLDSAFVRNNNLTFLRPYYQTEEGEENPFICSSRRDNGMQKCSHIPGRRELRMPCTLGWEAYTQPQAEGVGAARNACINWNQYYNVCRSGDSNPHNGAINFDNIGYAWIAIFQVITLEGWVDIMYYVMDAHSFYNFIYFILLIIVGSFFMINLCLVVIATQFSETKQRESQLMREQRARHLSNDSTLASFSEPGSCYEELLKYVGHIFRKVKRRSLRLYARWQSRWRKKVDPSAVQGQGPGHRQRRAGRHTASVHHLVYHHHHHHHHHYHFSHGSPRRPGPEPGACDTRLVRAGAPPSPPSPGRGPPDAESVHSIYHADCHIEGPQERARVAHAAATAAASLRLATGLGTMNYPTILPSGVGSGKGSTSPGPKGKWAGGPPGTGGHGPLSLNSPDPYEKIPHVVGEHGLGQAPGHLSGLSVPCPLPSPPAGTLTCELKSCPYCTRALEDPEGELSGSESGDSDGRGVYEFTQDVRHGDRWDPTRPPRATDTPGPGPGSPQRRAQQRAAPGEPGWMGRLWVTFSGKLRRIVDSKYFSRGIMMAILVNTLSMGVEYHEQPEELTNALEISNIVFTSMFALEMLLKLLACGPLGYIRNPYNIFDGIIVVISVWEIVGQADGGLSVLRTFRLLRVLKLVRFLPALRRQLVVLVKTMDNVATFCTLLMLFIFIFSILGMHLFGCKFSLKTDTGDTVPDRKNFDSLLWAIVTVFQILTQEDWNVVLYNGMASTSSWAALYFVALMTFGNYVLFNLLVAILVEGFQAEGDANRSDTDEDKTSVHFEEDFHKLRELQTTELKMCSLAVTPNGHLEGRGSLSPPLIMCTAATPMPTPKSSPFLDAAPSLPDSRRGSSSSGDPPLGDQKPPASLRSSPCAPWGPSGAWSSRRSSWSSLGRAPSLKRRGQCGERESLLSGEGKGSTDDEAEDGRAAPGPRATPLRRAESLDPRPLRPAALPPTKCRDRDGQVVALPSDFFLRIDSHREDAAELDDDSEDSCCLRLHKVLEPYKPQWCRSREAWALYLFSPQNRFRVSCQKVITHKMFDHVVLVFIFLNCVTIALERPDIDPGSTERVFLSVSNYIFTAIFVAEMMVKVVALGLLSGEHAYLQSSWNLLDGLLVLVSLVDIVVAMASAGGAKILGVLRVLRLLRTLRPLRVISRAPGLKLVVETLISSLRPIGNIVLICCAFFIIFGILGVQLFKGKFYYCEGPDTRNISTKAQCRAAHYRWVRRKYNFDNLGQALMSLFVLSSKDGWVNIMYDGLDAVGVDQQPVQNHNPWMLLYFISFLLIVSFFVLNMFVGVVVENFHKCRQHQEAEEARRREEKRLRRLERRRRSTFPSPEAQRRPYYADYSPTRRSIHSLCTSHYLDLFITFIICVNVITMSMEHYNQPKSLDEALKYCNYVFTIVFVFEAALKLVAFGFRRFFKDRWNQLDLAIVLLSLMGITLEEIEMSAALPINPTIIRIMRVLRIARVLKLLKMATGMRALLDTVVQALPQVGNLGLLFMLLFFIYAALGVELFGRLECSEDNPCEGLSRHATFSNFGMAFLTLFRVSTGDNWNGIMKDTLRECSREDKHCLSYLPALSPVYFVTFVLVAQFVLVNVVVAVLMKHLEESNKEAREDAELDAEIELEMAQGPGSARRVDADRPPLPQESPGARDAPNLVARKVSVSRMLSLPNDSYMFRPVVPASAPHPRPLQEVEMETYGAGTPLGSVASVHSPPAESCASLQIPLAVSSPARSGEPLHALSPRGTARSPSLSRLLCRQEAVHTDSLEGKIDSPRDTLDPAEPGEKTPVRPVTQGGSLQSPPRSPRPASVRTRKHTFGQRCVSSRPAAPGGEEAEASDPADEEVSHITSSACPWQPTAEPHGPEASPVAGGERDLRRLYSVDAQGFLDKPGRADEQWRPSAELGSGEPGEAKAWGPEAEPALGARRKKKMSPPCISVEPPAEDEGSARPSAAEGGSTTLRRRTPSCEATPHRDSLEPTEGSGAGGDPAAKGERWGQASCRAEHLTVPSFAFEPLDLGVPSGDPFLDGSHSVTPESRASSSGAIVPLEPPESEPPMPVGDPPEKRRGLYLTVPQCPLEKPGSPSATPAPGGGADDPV
# Aminopeptidase N = target: T2, Aminopeptidase N (Plasmodium falciparum FcB1/Columbia, UniProt O96935); assay: P. falciparum M1AAP inhibitors, biochemical, fluorogenic H-Leu-NHMec substrate, 1536-well (AID 1445); parameters: species or system Plasmodium falciparum 3D7, 3D7
# T2 sequence (O96935 whole entry): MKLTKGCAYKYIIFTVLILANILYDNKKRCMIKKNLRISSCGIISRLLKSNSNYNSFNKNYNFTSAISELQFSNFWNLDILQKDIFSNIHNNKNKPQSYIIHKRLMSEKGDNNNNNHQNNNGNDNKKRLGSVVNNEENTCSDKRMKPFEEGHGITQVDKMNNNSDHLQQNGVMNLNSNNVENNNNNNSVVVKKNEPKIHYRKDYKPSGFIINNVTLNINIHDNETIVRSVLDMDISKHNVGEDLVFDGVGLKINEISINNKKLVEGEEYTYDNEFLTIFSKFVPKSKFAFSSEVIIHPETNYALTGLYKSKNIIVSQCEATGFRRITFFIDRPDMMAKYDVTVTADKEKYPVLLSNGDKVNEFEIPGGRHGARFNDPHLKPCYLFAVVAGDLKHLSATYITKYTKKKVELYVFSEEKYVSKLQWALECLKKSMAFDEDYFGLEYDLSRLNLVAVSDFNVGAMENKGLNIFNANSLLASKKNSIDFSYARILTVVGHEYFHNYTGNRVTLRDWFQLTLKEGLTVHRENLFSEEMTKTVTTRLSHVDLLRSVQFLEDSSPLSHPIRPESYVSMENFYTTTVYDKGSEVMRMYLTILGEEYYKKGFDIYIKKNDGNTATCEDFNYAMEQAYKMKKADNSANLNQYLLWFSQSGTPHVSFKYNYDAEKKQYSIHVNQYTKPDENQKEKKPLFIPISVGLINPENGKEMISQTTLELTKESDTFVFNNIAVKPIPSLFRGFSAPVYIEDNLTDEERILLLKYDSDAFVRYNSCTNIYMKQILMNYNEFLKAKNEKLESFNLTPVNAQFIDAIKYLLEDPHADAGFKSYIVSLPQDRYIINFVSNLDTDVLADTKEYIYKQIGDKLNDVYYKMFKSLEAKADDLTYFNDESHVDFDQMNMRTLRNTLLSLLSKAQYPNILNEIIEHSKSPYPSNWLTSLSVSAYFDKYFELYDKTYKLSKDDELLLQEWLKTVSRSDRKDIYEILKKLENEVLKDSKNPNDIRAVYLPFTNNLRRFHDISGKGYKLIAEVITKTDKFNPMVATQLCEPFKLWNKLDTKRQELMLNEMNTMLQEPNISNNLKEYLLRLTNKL
# [9] = target: FAD-linked sulfhydryl oxidase ALR (Homo sapiens, UniProt P55789); assay: inhibitors of human ALR sulfhydryl oxidase, dose response, biochemical, H2O2 detection, luminescence, cherry-pick (AID 493248)
# Sequence of FAD-linked sulfhydryl oxidase ALR (P55789 whole entry): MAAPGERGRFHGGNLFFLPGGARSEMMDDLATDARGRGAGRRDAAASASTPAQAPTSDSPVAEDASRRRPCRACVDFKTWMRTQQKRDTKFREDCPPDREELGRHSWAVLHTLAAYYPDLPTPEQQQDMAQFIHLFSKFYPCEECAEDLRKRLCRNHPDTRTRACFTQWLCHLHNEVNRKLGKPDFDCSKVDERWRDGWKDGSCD
# [10] = HEp-2 cell cytotoxicity, dose response, cytotoxicity control for RSV inhibitor project, HTS (AID 2410); format: functional; details: human respiratory syncytial virus
# [11] = cytotoxicity in HEK-293T cells, dose response, cytotoxicity control for BCR NF-kB inhibitor project, luminescence, B-cell screen hits (AID 489021); format: functional, cell-based;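 further: HEK-293T cells carrying an NF-kB luciferase reporter; cells exposed to compound for about 14 hours before viability readout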
# [12] = target: ATP-dependent molecular chaperone HSP82 (Candida albicans (strain WO-1) (Yeast), UniProt C4YTQ8); assay: loss of DOC-induced GRE-beta-galactosidase reporter signal, dose response, Hsp90 inhibitor project, S. cerevisiae, luminescence (AID 2400); format: functional, cell-based;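 further: beta-galactosidase luminescence from glucocorticoid response element reporter as proxy for Hsp90 function; inhibitor potency where signal loss means Hsp90 inhibition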
# [13] = NIH-3T3 fibroblast cytotoxicity, dose response, cytotoxicity control, cell-based, fluorescence, Alamar Blue, secondary assay (AID 2327); format: functional;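 further: NIH-3T3 mouse fibroblasts cultured with fluconazole at 8 µg/mL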
# [14] = target: T3, Serine/threonine-protein phosphatase (Candida dubliniensis (strain CD36 / CBS 7987 / NCPF 3949 / NRRLY-17841) (Yeast), UniProt B9W6M3); assay: calcineurin pathway inhibitors in yeast reporter, dose response, S. cerevisiae, CDRE-lacZ, luminescence, secondary (AID 2388); format: functional, cell-based;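 further: yeast reporter cells carrying a calcineurin-responsive lacZ construct stimulated with calcium chloride; luminescent beta-galactosidase reporter signal in whole cells rather than isolated phosphatase activity; potency for inhibition where a drop in reporter signal means calcineurin blockade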
# T3 sequence (B9W6M3 whole entry): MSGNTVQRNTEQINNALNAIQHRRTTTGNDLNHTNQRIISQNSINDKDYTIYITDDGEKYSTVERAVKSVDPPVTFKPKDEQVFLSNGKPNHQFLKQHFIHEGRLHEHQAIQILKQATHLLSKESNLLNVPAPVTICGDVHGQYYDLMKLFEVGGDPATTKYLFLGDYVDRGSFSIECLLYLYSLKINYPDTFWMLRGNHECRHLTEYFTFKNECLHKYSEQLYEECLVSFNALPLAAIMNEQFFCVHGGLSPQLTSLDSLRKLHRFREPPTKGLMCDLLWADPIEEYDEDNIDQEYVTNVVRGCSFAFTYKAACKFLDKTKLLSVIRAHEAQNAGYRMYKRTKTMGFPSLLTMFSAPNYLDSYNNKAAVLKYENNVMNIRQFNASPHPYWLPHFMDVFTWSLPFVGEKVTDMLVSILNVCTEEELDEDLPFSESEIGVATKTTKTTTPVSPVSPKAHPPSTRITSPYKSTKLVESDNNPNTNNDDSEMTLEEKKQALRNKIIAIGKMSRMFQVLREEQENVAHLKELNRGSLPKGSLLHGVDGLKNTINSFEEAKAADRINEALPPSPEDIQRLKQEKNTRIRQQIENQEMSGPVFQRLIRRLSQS
# [15] = C. albicans growth with fluconazole, confirmation, fluorescence, retest (AID 2467); format: functional, cell-based
# Cytochrome P450 2C19 = Cytochrome P450 2C19 (Homo sapiens, UniProt P33261); assay: Cytochrome panel assay with activity outcomes. Panel member name: p450-cyp2c19 Compounds with AC50 equal or less than 10 uM are considered active; format: functional; details: read-out: AC50
# Cytochrome P450 2C9 = Cytochrome P450 2C9 (Homo sapiens, UniProt P11712)
# Large T antigen = Large T antigen (Simian virus 40, UniProt P03070); format: functional, Betapolyomavirus macacae;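 further: Confirmatory-stage PubChem screen for compounds that inhibit SV40 T antigen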
# Sequence of Large T antigen (P03070 whole entry): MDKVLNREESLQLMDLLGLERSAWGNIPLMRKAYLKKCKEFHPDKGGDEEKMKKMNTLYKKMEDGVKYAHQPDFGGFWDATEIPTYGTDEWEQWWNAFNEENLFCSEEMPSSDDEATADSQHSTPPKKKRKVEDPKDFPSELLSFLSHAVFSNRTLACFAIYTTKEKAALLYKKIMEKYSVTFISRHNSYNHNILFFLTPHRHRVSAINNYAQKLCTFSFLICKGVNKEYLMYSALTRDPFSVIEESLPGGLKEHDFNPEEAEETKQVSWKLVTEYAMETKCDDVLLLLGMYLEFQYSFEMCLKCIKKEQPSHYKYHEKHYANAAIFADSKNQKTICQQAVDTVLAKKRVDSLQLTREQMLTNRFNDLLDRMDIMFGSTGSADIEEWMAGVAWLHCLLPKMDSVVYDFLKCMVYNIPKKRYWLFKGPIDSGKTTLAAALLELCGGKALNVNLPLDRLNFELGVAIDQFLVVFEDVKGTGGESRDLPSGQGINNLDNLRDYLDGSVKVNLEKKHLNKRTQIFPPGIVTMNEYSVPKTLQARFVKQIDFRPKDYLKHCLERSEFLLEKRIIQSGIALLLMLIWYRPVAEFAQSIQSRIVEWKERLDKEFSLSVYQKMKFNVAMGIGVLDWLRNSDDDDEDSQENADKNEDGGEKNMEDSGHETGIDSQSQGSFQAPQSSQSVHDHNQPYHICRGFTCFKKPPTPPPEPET
smiles,measurement,setting,value
Cn1c(=O)cc(SCC(=O)NCCCN2CCN(c3ccc(F)cc3)CC2)c2ccccc21,EC50,[1],> 26.5 µM (not active)
same,EC50,[2],> 79.4 µM (not active)
same,EC50,[3],> 79.4 µM (inactive)
CN(C)S(=O)(=O)c1ccc(C(=O)NCC[N+]2(C)CCCCCC2)o1,IC50,[4],1.89 µM (active)
same,IC50,[5],4.08 µM (active)
C[N+]1(CCCOC(=O)C2(c3ccccc3)CCCC2)CCOCC1,IC50,[4],1.61 µM (active)
same,IC50,[5],1.99 µM (active)
O=C(NCCc1ccc(O)c(O)c1)C1CCCO1 (stereo not drawn),IC50,[6],> 100 µM (inactive)
same,IC50,[7],44.4 µM (active)
CN1C(=O)c2ccccc2N(C)C1c1ccccc1Cl (stereo not drawn),AC50,Trypsin,9.6 µM (active)
Cc1cccc(N2CCN(C(=O)CCCOc3ccccc3)CC2)c1C,EC50,[8],5.65 µM (active)
Cc1c(CCC(=O)O)c(=O)oc2cc3occ(-c4ccc(F)cc4)c3cc12,IC50,Aminopeptidase N,16.3 µM (active)
same,AC50,[9],2.68 µM (active)
Cc1cc(O)oc2nnc(-c3ccccc3)c1-2,IC50,[6],0.23 µM (active)
same,CC50,[10],34.3 µM (active)
same,IC50,[7],> 100 µM (inactive)
Cc1cc(OCC(=O)N2CCC(C(N)=O)CC2)c2c3c(c(=O)oc2c1)CCCC3,IC50,[11],> 80 µM (inactive)
Cc1ccc(-c2nnc(CSc3nnc(COc4ccccc4)n3-c3ccc(C)cc3)o2)cc1,EC50,[8],4.75 µM (active)
Cc1cnc(Nc2nc3ccccc3o2)nc1C(=O)Nc1cccc(C(F)(F)F)c1,EC50,[8],5.15 µM (active)
C=CCn1c(SCC(=O)c2ccc(O)c(O)c2)nnc1-c1cccc(C)c1,IC50,[6],17.8 µM (active)
same,IC50,[7],5.59 µM (active)
O=C(O)c1ccccc1-c1ccccc1C(=O)Nc1cccc(-c2nc3ccccc3o2)c1,IC50,Aminopeptidase N,16.4 µM (active)
same,EC50,[12],> 150 µM (inactive)
same,EC50,[13],> 160 µM (inactive)
same,EC50,[14],> 180 µM (inactive)
same,EC50,[15],2.62 µM (active)
CC1CCN(C(=O)c2ncn(C)c2C(=O)N2CCC(C)CC2)CC1,IC50,[4],2.34 µM (active)
same,IC50,[5],2.83 µM (active)
O=C(NCc1ccc2c(c1)OCO2)c1cc(-n2cnnc2)ccc1Cl,IC50,[4],1.64 µM (active)
same,IC50,[5],2.44 µM (active)
Cc1ccc(Sc2ccc(NC(=O)c3ccc(S(C)(=O)=O)cc3Cl)cc2)cc1,AC50,Cytochrome P450 2C19,39.8 µM (inconclusive)
same,EC50,[1],5.64 µM (active)
same,EC50,[2],> 8.82 µM (not active)
same,AC50,Cytochrome P450 2C9,inconclusive
same,EC50,[3],5.96 µM (active)
CCCn1c(N2CCN(CC(=O)Nc3ccc4c(c3)OCCO4)CC2)nc2ccccc21,EC50,[8],3.84 µM (active)
CCOC(=O)C1CCN(C(=O)CSc2cc(=O)n(C)c3ccccc23)CC1,EC50,[1],> 79.4 µM (not active)
same,EC50,[2],> 79.4 µM (not active)
same,EC50,[3],> 79.4 µM (inactive)
CCCNC(=O)c1ccc(N2CCC3(CC2)CC(c2cccc(Br)c2)=NO3)c(NC(=O)c2ccc(Cl)c([N+](=O)[O-])c2)c1,IC50,[11],> 80 µM (inactive)
O=c1oc2cc(O)ccc2c2ccccc12,EC50,[1],> 79.4 µM (not active)
same,IC50,Large T antigen,38.8 µM (active)
same,EC50,[2],> 79.4 µM (not active)
same,EC50,[3],> 79.4 µM (inactive)
Cc1nccn1CC(=O)c1ccc(O)c(O)c1,IC50,[6],59.6 µM (active)
same,AC50,[9],4.4 µM (active)
same,IC50,[7],2.37 µM (active)
O=C(CN1C(=O)c2ccccc2S1(=O)=O)c1ccc(OC(F)F)cc1,IC50,[11],> 80 µM (inactive)
